According to US9187472B2 (AbbVie Inc., priority 2012, dated 2015):

Key:
[1] = target: NAMPT (human, recombinant, C-terminally His-tagged) (Homo sapiens, UniProt P43490); experiment: Time-Resolved Fluorescence Resonance Energy Transfer (TR-FRET) Binding Assay of NAMPT; details: without substrates; 6.8 nM NAMPT, 200 nM probe, 3 hours equilibration
In short: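 Competitive binding against an Oregon Green 488 tracer (200 nM), 6.8 nM His-tagged enzyme, 1 nM Tb antibody, 2% DMSO, 3 h at RT. IC50 derived from TR-FRET ratios.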

NAMPT = NAMPT (Homo sapiens, UniProt P43490); experiment: TR-FRET Binding Assay of NAMPT with PRPP; details: with 200 μM PRPP and 2.5 mM ATP; 2 nM NAMPT, 2 nM probe, 16 hours equilibration
Sequence of NAMPT (P43490 whole entry): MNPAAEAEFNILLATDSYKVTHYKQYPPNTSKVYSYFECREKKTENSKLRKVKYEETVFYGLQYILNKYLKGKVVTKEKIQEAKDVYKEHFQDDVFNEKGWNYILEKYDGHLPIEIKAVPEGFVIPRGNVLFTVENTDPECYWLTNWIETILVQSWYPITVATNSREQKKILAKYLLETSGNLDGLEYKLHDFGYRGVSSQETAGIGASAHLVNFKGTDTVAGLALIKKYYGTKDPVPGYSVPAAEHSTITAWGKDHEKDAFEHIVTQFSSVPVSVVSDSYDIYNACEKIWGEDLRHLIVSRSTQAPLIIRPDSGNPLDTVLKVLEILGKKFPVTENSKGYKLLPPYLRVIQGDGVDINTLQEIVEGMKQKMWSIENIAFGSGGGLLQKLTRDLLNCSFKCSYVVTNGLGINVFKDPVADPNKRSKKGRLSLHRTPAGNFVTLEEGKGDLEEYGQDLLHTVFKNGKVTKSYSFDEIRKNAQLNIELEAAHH
In short: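 Read-out is TR-FRET after a 16 h equilibration allowing possible compound modification by the enzyme. Final mix: 2 nM NAMPT, 2 nM probe, 1 nM Tb-anti-His antibody, 200 μM PRPP, 2.5 mM ATP, 2% DMSO.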

PC3 cells = experiment: NAMPT Cell Proliferation Assay; type: cell-based; details: Homo sapiens, PC-3, 120 h, 5 days incubation, cell viability by Cell Titer Glo
In short: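 Following overnight attachment in RPMI with 10% heat-inactivated FBS, PC3 cells at 500 per well receive compounds spanning 10 μM down to 1×10^−5 μM. Growth is assessed by luminescent viability read after 5 days.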

Sequence of NAMPT (human, recombinant, C-terminally His-tagged) (P43490 whole entry): as above

SMILES	IC50 [1]	IC50 (NAMPT)	IC50 (PC3 cells)
O=C(NCc1ccn2ccnc2c1)c1ccc(C(=O)N2CCCCC2)cc1 [Example 566, N-(imidazo[1,2-a]pyridin-7-ylmethyl)-4-(piperidin-1-ylcarbonyl)benzamide]	> 10000 nM	216 nM	> 10000 nM
CCS(=O)(=O)N1CC(c2ccc(C(=O)NCc3ccn4ccnc4c3)cc2)C1 [Example 567, 4-[1-(ethylsulfonyl)azetidin-3-yl]-N-(imidazo[1,2-a]pyridin-7-ylmethyl)benzamide]	403 nM	1.11 nM	237 nM
O=C(NCc1ccn2ccnc2c1)c1ccc(C2CN(S(=O)(=O)C3CC3)C2)cc1 [Example 568, 4-[1-(cyclopropylsulfonyl)azetidin-3-yl]-N-(imidazo[1,2-a]pyridin-7-ylmethyl)benzamide]	375 nM	0.723 nM	180 nM
O=C(NCc1ccn2ccnc2c1)c1ccc(C2CN(S(=O)(=O)c3ccccc3)C2)cc1 [Example 569, N-(imidazo[1,2-a]pyridin-7-ylmethyl)-4-[1-(phenylsulfonyl)azetidin-3-yl]benzamide]	217 nM	0.669 nM	226 nM
CC(C)OC(=O)N1CCC(c2ccc(C(=O)NCc3ccn4ccnc4c3)s2)CC1 [Example 570, propan-2-yl-4-{5-[(imidazo[1,2-a]pyridin-7-ylmethyl)carbamoyl]thiophen-2-yl}piperidine-1-carboxylate]	70.4 nM	0.751 nM	7.35 nM
CC(C)COC(=O)N1CCC(c2ccc(C(=O)NCc3ccn4ccnc4c3)s2)CC1 [Example 571, 2-methylpropyl 4-{5-[(imidazo[1,2-a]pyridin-7-ylmethyl)carbamoyl]thiophen-2-yl}piperidine-1-carboxylate]	41.7 nM	0.494 nM	22.9 nM
O=C(NCc1ccn2ccnc2c1)c1ccc(C2CCN(C(=O)CC(F)(F)F)CC2)s1 [Example 572, N-(imidazo[1,2-a]pyridin-7-ylmethyl)-5-[1-(3,3,3-trifluoropropanoyl)piperidin-4-yl]thiophene-2-carboxamide]	51.6 nM	0.403 nM	6.66 nM
O=C(NCc1ccn2ccnc2c1)c1ccc(C2CCN(C(=O)CCC(F)(F)F)CC2)s1 [Example 574, N-(imidazo[1,2-a]pyridin-7-ylmethyl)-5-[1-(4,4,4-trifluorobutanoyl)piperidin-4-yl]thiophene-2-carboxamide]	97.5 nM	0.505 nM	5.2 nM
CC(C)C(=O)N1CCC(c2ccc(C(=O)NCc3ccn4c(Cl)cnc4c3)cc2)CC1 [Example 575, N-[(3-chloroimidazo[1,2-a]pyridin-7-yl)methyl]-4-[1-(2-methylpropanoyl)piperidin-4-yl]benzamide]	3250 nM	10.8 nM	> 10000 nM
O=C(NCc1ccn2ccnc2c1)c1ccc(C2CCN(C(=O)CC3CCCC3)C2)cc1 (stereo not drawn) [Example 581, 4-[1-(cyclopentylacetyl)pyrrolidin-3-yl]-N-(imidazo[1,2-a]pyridin-7-ylmethyl)benzamide]	945 nM	1.09 nM	81.2 nM
O=C(NCc1ccn2ccnc2c1)c1ccc(C2CCN(C(=O)c3cncs3)C2)cc1 (stereo not drawn) [Example 586, N-(imidazo[1,2-a]pyridin-7-ylmethyl)-4-[1-(1,3-thiazol-5-ylcarbonyl)pyrrolidin-3-yl]benzamide]	842 nM	1.09 nM	301 nM

The remaining compounds from weak to strong by IC50 [1], led by results:

IC50 [1]	IC50 (NAMPT)	IC50 (PC3 cells)	SMILES
1470 nM	0.798 nM	212 nM	CC1CC1C(=O)N1CCC(c2ccc(C(=O)NCc3ccn4ccnc4c3)cc2)C1 (stereo not drawn) [Example 580, N-(imidazo[1,2-a]pyridin-7-ylmethyl)-4-{1-[(2-methylcyclopropyl)carbonyl]pyrrolidin-3-yl}benzamide]
1120 nM	0.799 nM	189 nM	O=C(NCc1ccn2ccnc2c1)c1ccc(C2CCN(C(=O)C3CCCC3)C2)cc1 (stereo not drawn) [Example 583, 4-[1-(cyclopentylcarbonyl)pyrrolidin-3-yl]-N-(imidazo[1,2-a]pyridin-7-ylmethyl)benzamide]
811 nM	0.756 nM	58.7 nM	CC1(C(=O)N2CCC(c3ccc(C(=O)NCc4ccn5ccnc5c4)cc3)C2)CC1 (stereo not drawn) [Example 584, N-(imidazo[1,2-a]pyridin-7-ylmethyl)-4-{1-[(1-methylcyclopropyl)carbonyl]pyrrolidin-3-yl}benzamide]
711 nM	0.911 nM	33.2 nM	CCC(C)CC(=O)N1CCC(c2ccc(C(=O)NCc3ccn4ccnc4c3)cc2)C1 (stereo not drawn) [Example 582, N-(imidazo[1,2-a]pyridin-7-ylmethyl)-4-[1-(3-methylpentanoyl)pyrrolidin-3-yl]benzamide]
682 nM	0.775 nM	4600 nM	CC(C)Cn1cc(-c2sc(C(=O)NCc3ccn4ccnc4c3)cc2Cl)cn1 [Example 578, 4-chloro-N-(imidazo[1,2-a]pyridin-7-ylmethyl)-5-[1-(2-methylpropyl)-1H-pyrazol-4-yl]thiophene-2-carboxamide]
641 nM	0.648 nM	34.6 nM	CC(C)(C)C(=O)N1CCC(c2ccc(C(=O)NCc3ccn4ccnc4c3)cc2)C1 (stereo not drawn) [Example 585, 4-[1-(2,2-dimethylpropanoyl)pyrrolidin-3-yl]-N-(imidazo[1,2-a]pyridin-7-ylmethyl)benzamide]
488 nM	0.634 nM	758 nM	O=C(NCc1ccn2ccnc2c1)c1cc(Cl)c(-c2cnn(C[C@H]3CCOC3)c2)s1 [Example 579, 4-chloro-N-(imidazo[1,2-a]pyridin-7-ylmethyl)-5-{1-[(3R)-tetrahydrofuran-3-ylmethyl]-1H-pyrazol-4-yl}thiophene-2-carboxamide]
215 nM	5.38 nM	891 nM	CC(C)(C)OC(=O)N1CCC(c2ccc(NC(=O)NCc3ccn4ncnc4c3)cc2)CC1 [Example 565, tert-butyl 4-(4-{[([1,2,4]triazolo[1,5-a]pyridin-7-ylmethyl)carbamoyl]amino}phenyl)piperidine-1-carboxylate]
24.2 nM	0.403 nM	3.72 nM	CC(C)CS(=O)(=O)N1CCC(c2ccc(C(=O)NCc3ccn4ccnc4c3)s2)CC1 [Example 573, N-(imidazo[1,2-a]pyridin-7-ylmethyl)-5-{1-[(2-methylpropyl)sulfonyl]piperidin-4-yl}thiophene-2-carboxamide]
23.8 nM	3.43 nM	211 nM	O=C(CC1CCCC1)Nc1ccc(NC(=O)NCc2ccn3ncnc3c2)cc1 [Example 564, 2-cyclopentyl-N-(4-{[([1,2,4]triazolo[1,5-a]pyridin-7-ylmethyl)carbamoyl]amino}phenyl)acetamide]
18.9 nM	0.361 nM	2.15 nM	CC(C)(C#N)Cn1cc(-c2ccc(C(=O)NCc3ccn4ccnc4c3)s2)cn1 [Example 577, 5-[1-(2-cyano-2-methylpropyl)-1H-pyrazol-4-yl]-N-(imidazo[1,2-a]pyridin-7-ylmethyl)thiophene-2-carboxamide]
16 nM	0.783 nM	0.569 nM	CC1(Cn2cc(-c3ccc(C(=O)NCc4ccn5ccnc5c4)s3)cn2)CCOCC1 [Example 576, N-(imidazo[1,2-a]pyridin-7-ylmethyl)-5-{1-[(4-methyltetrahydro-2H-pyran-4-yl)methyl]-1H-pyrazol-4-yl}thiophene-2-carboxamide]
